This is an account of results in US20060093580A1, “Tolerogenic vaccine and method” (priority 2004, published 2006).

Several values for one entry are separate records, joined by “and”; a condition that tells them apart may be missing. Equal entries are not always repeated. Entries after “also recorded” stand apart in the source; their conditions may differ. Where two headings read alike, the source gives them in different places.

The test system of series [1] is CD4^+CD25^− T cells. The series can be described thus: CD25 expression by flow cytometry after anti-CD3 stimulation. It counts as cell-based, mouse. The following applies: anti-CD3 + APCs, 16 hours. On the procedure:
(§1) After 16 hours of stimulation, expression of CD25 was analyzed by flow cytometry. Dotted lines represent the staining level of unstimulated cells.
In general terms: Flow cytometry measures light scatter and fluorescence of single cells or particles in a stream.

For series [2], the system named is splenic CD4 and CD8 T cells. The series can be described thus: CFSE cell division of anti-CD3-stimulated splenic T cells. It counts as cell-based, mouse. The following applies: 0.3% alcohol, anti-CD3 + irradiated APCs, 72 hours. How it is done: (§2) For determination of cell division, T cells were labeled with 1 μM CFSE (Molecular Probes, Eugene, Oreg.) for 15 minutes at 37° C. CFSE-labeled T cells (5×10^5 cells/ml) were cultured with 0.2 μg/ml of anti-CD3 with APCs (T cell-depleted splenocytes, γ-irradiated with 2000 rads, 8×10^5 cells/ml). […] After 72 hours, cells were harvested and stained with antibody against CD4 and CD8. The number of cell divisions was determined by flow cytometry. Exogenous IL-2 was added at 50 units/ml where indicated. For the proliferation assay, ^3H-thymidine (0.5 μCi/well) was added for the last 6 hours of culture. Cytokine assays were performed by enzyme-linked immunoassays as previously described (Singh, N. et al. (1999), J. Immunol. 163:2373-2377).

Series [3] deals with CD4^+CD25^− T cells. The series can be described thus: 3H-thymidine proliferation after anti-CD3 stimulation with or without exogenous IL-2. It counts as cell-based, mouse. The following applies: 0.3%. How it is done: (§3) (B) 1-butanol effect on the proliferative response of CD4^+CD25^− and CD4^+CD25^+ T cells to anti-CD3 or anti-CD3^+ exogenous IL-2. […] Proliferation of cells was measured as in FIG. 1B.
(§4) (D) CD4^+CD25^− and CD4^+CD25^+ T cells (2×10^4 cells/well) were stimulated by anti-CD3 in the absence (left panel) or presence (right panel) of exogenous IL-2. […] [3H]-thymidine uptake was measured 72 hours later.
as §2
We also examined the effect of 1-alcohol on the proliferation of CD4^+CD25^− and CD4^+CD25^+ cells. CD4^+CD25^− and CD4^+CD25^+ cells were isolated from splenocytes using a MoFlo cell sorter. Each cell type was stimulated with anti-CD3 antibody in the presence of irradiated APCs with or without the addition of exogenous IL-2. Proliferation was measured by ^3H-thymidine incorporation on day 3.

The subject of another series is CD4 Foxp3^+ cells. The series can be described thus: Foxp3 and CTLA-4 flow cytometry of CD4 T cells expanded with alcohol. The series is classed as cell-based, mouse. On the procedure: (B) Foxp3 and CTLA4 levels were determined by flow cytometry analysis of CD4^med, CD4^t-but or CD4^1-but cells at day 1 (upper panels) and day 8 (lower panels).
After 3 days of culture with alcohol, cells were expanded in the medium free of alcohol but containing IL-2 for 4 days and analyzed by flow cytometry with Foxp3 and CTLA-4.

The test system of a further series is splenic CD4^+ T cells. The series can be described thus: Anti-CD3-induced elevation of intracellular Ca2+ (Fura2-AM). The series is classed as cell-based, mouse. To be noted: added together with stimulating antibody. On the procedure:
(C) 1-butanol effect on anti-CD3-induced elevation of intracellular Ca2^+. CD4 T cells were labeled with Fura2-AM and activated with biotin conjugated anti-CD3 and streptavidin. […] Levels of Ca2^+ were determined by the ratio of fluorescence at 340/380 nm.
To further elucidate the role of PLD in T cell activation, TCR proximal signaling events were examined. First, the effect of 1-butanol on the elevation of intracellular Ca^2+ was determined. […] Elevation of intracellular Ca^2+ is required for activation of transcription factors, such as NF-AT, which are essential for CD25 and IL-2 expression (Crabtree, G. R. and Olson, E. N. (2002), Cell 109(Suppl):867-879; Hogan, P. G. et al. (Sep. 15, […]), Genes Dev. 17:2205-[…]).

For a further series, the system named is ERK. The series can be described thus: Anti-CD3-induced ERK activation (phospho-ERK staining). It counts as cell-based, mouse. The following applies: anti-CD3 + APCs, 3 hours. How it is done: (D) Effect of 1-butanol on antl-CD3-induced ERK activation. CD4 T cells were stimulated with anti-CD3 and APCs for 3 hours and stained with antibody against phospho-ERK. […] Thick lines show the data from stimulated cells and thin lines show data from unstimulated cells.
TCR stimulation also induces activation of the Ras/ERK pathway, and sustained ERK activation is essential for IL-2 production (Iwashima, M. (May, 2003), Immunol. Review 192; T. Koike et al., J. Biol. Chem. 278:15685-15692).

Series [4] deals with PLD. To be noted: Thibault 2000; Grenier 2003; cited from earlier work.
The subject of series [5] is PLD. The series can be described thus: TCR-induced PLD activity (3H-oleate labelling, PA and Pet by TLC). It counts as cell-based, mouse. The following applies: 100 μM, plate-bound anti-CD3 40 minutes, 0.5% ethanol, primary T cells. From the text:
FIG. 5 Effect of adenosine on TCR-induced PLD activation. (A) Phosphatidic acid production by primary CD4 T cells stimulated with anti-CD3 antibodies in the presence of ethanol (open bar) and adenosine (closed bar) compared with unstimulated T cells. (B) Phosphatidylethanol (Pet) production by primary CD4 Mouse CD4 T cells stimulated with anti-CD3 antibodies in the presence of ethanol (open bar) and adenosine (closed bar) compared with unstimulated T cells.
Mouse CD4 T cells were labeled with ^3H-oleate to measure PLD activity (Zheng, et al. (2003), Biochim. Biophys. Acta. 1643(1-3):25-36). Cells were then washed and activated by plate-bound anti-CD3 for 40 minutes in the presence of 0.5% of ethanol (open bar). Effect of adenosine was examined using the medium containing 100 μM of adenosine (closed bar). Cells were harvested and lipid extracts of cells were separated on TLC plates and bands corresponding to phosphatidic acid (PA) (FIG. 5A) and phosphatidylethanol (Pet) (FIG. 5B) were excised and counted by liquid scintillation.

For series [6], the system named is CD4^+CD25^+ T cells. On the procedure:
as §1

The test system of series [7] is CD4^+CD25^+ T cells. To be noted: 0.3%, activation by anti-CD3 and IL-2. On the procedure:
as §3, §4, §2
We also examined the effect of 1-alcohol on the proliferation of CD4^+CD25^− and CD4^+CD25^+ cells. CD4^+CD25^− and CD4^+CD25^+ cells were isolated from splenocytes using a MoFlo cell sorter. […] Proliferation was measured by ^3H-thymidine incorporation on day 3.

Series [8] deals with CD4^+CD25^− T cells. On the procedure: (I) Cytokine production by 1-but and t-but-treated CD4^+25^− and CD4^+25^+ T cells. CD4^+25^− and CD4^+25^+ T cells were stimulated as described in FIG. 3A. The same supernatants were used to measure the amount of IL-4 (left panel) and IFN-γ (right panel). Closed bars show medium-treated T cells, gray bars show t-but- treated T cells, and open bars show 1-but-treated T cells.
(A) Effect of 1-butanol on anti-CD3-induced IL-2 production. […] IL-2 production was determined by ELISA of culture supernatants obtained after 24 hours of stimulation.
as §2

Series [9] deals with CD4^+CD25^− T cells. The series can be described thus: In vitro suppression assay. It counts as cell-based, mouse. To be noted: 1-butanol and anti-CD3 treatment.
Description: CD4^+CD25^− T cells (2.5×10^4 cells) were cultured with graded doses of CD4^med cells (open circles), CD4^t-but cells (open squares) or CD4^1-but cells (closed squares) for 72 hours with anti-CD3 antibody and APCs. Proliferation of cells was measured as in (B).
Cells were cultured as in (C) using equal numbers of CD4^+CD25^− cells and CD4^med cells, CD4^1-but cells, or CD4^t-but cells. Production of IL-2 after 24 hours of co-culture was measured.
(H) Effect of CD4^med, CD4^t-but, and CD4^1-but cells on cytokine production by CD4^+25^− T cells. CD4^+25^− T cells were stimulated and co-cultured with CD4^med cells (med), CD4^t-but cells (t-but), or CD4^1-but cells (1-but) as described in FIG. 1D. IL-4 and IFN-γ in the culture supernatants were measured by ELISA.
Suppression of freshly isolated CD4^+CD25^− cells was measured as in FIG. 1C.
Suppressive effects were measured by ^3H-thymidine incorporation or by cytokine production.
Where [10] appears, read: anti-CD3 + APCs, 3H-thymidine at 72 hours.

As to `CC(C)(C)O` [t-butanol, Tert-butanol], in the series with CD4^+CD25^− T cells [1], the “expression of CD25 by CD4^+CD25^− T cells” value was “did not elicit a significant effect”. Besides, in series [2], the “anti-CD3 induced cell division” value is reported as “no significant effect”. In addition, the “effect on proliferation of CD4^+CD25^− cells” value with CD4^+CD25^− T cells [3] (setting [10]) is “no significant effect”. For the same molecule, the “cells expressing Foxp3 and CTLA-4 (in words)” value in the series with CD4 Foxp3^+ cells (3 days with 0.3% alcohol, then 4 days IL-2 without alcohol) is on record as “almost no cells”. In addition, the “Numbers of live cells obtained from 1 × 10^6 CD4^+ T cells” value in the series with CD4^+ T cells (0.3% alcohol, anti-CD3 + APCs + IL-2, day 7, mean +/− standard deviation, experiments 1-3) is 18.5 ± 2.1 ×10^6 and 13 ± 2 ×10^6 and 14 ± 2 ×10^6. In the series with splenic CD4^+ T cells, the “anti-CD3-induced elevation of intracellular Ca^2+” value is “No significant effect”. In addition, in the series on ERK, the “CD3-induced elevation of phosphorylated ERK” value is recorded as “no detectable effect”.

On to `Nc1ncnc2c1ncn2[C@@H]1O[C@H](CO)[C@@H](O)[C@H]1O` [adenosine], for which the “PLD activation in neutrophils” value with PLD [4] is “inhibit PLD activation”. Further, in the series with PLD [5], the “PLD activity induced by TCR stimulation” value is “completely abrogated”.

As to `CCCCO` [1-butanol], in the series on CD4^+CD25^+ T cells [6] (anti-CD3 + APCs, 16 hours), the “up-regulation of CD25 expression in CD4^+CD25^+ T cells” value was “not affected”. Besides, in the series with CD4^+CD25^+ T cells [6] (not shown), the “expression of CD69 by CD4^+CD25^+ T cells” value is on record as “did not impair”. Further, the “effect on proliferation of CD4^+CD25^+ T cells” value in the series with CD4^+CD25^+ T cells [7] was “no effect”. The “expression of CD25 by CD4^+CD25^− T cells” value in the series with CD4^+CD25^− T cells [1] was “blocked the expression”. In addition, the “production of IL-2 by CD4^+CD25^− T cells” value in the series with CD4^+CD25^− T cells [8] (anti-CD3, 24 hours, ELISA) was “blocked production”. Besides, in the series with CD4^+CD25^− T cells [8] (anti-CD3, ELISA), the IFN-γ production entry is “abrogated” and the IL-4 production entry is on record as “abrogated”. In series [2], the “anti-CD3 induced cell division” value is “abrogated cell division”. Moreover, the “reduction of proliferation of CD4^+CD25^− cells” value with CD4^+CD25^− T cells [3] (setting [10]) was determined as 80%. In the series on CD4^+CD25^− T cells [3] (anti-CD3 + exogenous IL-2), the “proliferation of treated CD4^+CD25^− cells on addition of exogenous IL-2” value is reported as “did not restore proliferation; also recorded: did not rescue the proliferation”. In the series with CD4^+CD25^− T cells [9], the “suppressive activity of population expanded from total CD4^+ T cells” value was “strong suppressive activity” and the “suppressive function of population expanded from CD4^+ T cells with CD25^+ cells removed” value was “no suppressive function”. The “expansion of Foxp3^+ cells (total cell number)” value in the series with CD4 Foxp3^+ cells (in one week) is reported as “more than 10 fold”. For the same molecule, in the series on CD4^+ T cells, the “Numbers of live cells obtained from 1 × 10^6 CD4^+ T cells” value is 3.1 ± 0.3 ×10^6 and 2.5 ± 0.5 ×10^6 and 3.4 ± 0.5 ×10^6; the “cells recovered from 1×10^6 CD4^+CD25^− cells” value is 5×10^5 cells; the “cells recovered from 1×10^6 total CD4^+ cells” value was 3.6×10^6 cells; the “decrease in final yield on removal of CD25^+ T cells prior to treatment” value is listed as 80%. In the series with CD4^+ T cells, the “viability or surface antigen expression after pre-incubation” value was “no difference”. Besides, in the series with splenic CD4^+ T cells, the “anti-CD3-induced elevation of intracellular Ca^2+” value is on record as “substantially impaired”. Also, in the series on ERK, the “CD3-induced elevation of phosphorylated ERK” value is reported as “abolished”.
